Earlier results in patent publication US7364877B2, “Polynucleotides encoding disorazole polyketide synthase polypeptides” (Kosan Biosciences, Inc., priority 2002, dated 2008).

What was measured:
[1] = test system: yeast
[2] = test system: filamentous fungi belonging to the Ascomycetes, Basidiomycetes, Zygomycetes, Oomycetes, and Deuteromycetes families; conditions: including filamentous fungi
[3] = test system: bacteria
[4] = test system: mammalian cell; conditions: mammalian cells

In the case of `C/C=C/[C@H](O)C(C)(C)[C@@H]1C\C=C/C=C\C=C\[C@H](OC)Cc2nc(co2)C(=O)O[C@H](C(C)(C)[C@@H](O)/C=C/C)C/C=C\[C@H]2O[C@H]2/C=C/C=C\c2nc(co2)C(=O)O1` [Disorazole A, disorazole A], the activity against yeast [1] is given as “not highly active”, the “activity against different fungi (MIC)” value [2] is given as 100 to 1000 ng/mL and the activity against bacteria [3] is given as “not highly active”. The “mammalian cell cytotoxic activity (MIC)” value [4] was 0.003 to 0.03 ng/mL.
